Values of other authors, collected in PMC6544043 (ACS infectious diseases, 2019).

Target: adenosine/guanosine preferring nucleoside ribohydrolase (AGNH) (Trichomonas vaginalis, UniProt A2EYV3)
Details: read-out: inhibitor potency; cited from earlier work

Q: For `OC[C@H]1O[C@@H](n2cnc3c(NC4CCCC4)nc(Cl)nc32)[C@H](O)[C@@H]1O` [2-chloro-N(6)-cyclopenty-ladenosine], which IC50 is on record?
A: Its IC50 is 9 µM.
